For 26 molecules, IC50 results are on record in US9573957B2 (Boehringer Ingelheim International GmbH, priority 2013, dated 2017).

In one experiment the target is human LTA4 hydrolase (Homo sapiens (Human), UniProt P09960). The experiment in a line: LTA4H Enzyme assay (peptidase, Arg-AMC cleavage). The class given is biochemical. The settings on record: LTA4H Enzyme 1 nM, Arg-AMC substrate 50 μM, room temperature 1 h, fluorescence. The method in brief: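 Peptidase activity of human LTA4H (1 nM final) on Arg-AMC (50 μM final), with compound, 1 h at room temperature. Buffer: 50 mM Tris-HCl pH 7.5, 100 mM KCl, 0.5% BSA.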

The test system of experiment [1] is synthesis of LTB4 in human whole blood. The experiment in a line: LTB4 production inhibition assay in human whole blood (HWB). To be noted: heparinized human whole blood, 15 min at 37° C., Calcimycin 20 μM 30 min, plasma LTB4 by HTRF. The class given is cell-based. The method in brief:
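Heparinized human whole blood preincubated with compound 15 min at 37° C, then stimulated with calcimycin (20 μM final) for 30 min at 37° C. Plasma separated by centrifugation; LTB4 measured by antibody-based homogeneous time-resolved fluorescence.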
Background: TR-FRET usually uses a lanthanide donor and a delayed reading to cut background.

In general, pIC50 refers to −log10 of the IC50, conventionally taken in molar units.

pIC50: −log10 of the molar value.

human LTA4 hydrolase, sequence (P09960 whole entry): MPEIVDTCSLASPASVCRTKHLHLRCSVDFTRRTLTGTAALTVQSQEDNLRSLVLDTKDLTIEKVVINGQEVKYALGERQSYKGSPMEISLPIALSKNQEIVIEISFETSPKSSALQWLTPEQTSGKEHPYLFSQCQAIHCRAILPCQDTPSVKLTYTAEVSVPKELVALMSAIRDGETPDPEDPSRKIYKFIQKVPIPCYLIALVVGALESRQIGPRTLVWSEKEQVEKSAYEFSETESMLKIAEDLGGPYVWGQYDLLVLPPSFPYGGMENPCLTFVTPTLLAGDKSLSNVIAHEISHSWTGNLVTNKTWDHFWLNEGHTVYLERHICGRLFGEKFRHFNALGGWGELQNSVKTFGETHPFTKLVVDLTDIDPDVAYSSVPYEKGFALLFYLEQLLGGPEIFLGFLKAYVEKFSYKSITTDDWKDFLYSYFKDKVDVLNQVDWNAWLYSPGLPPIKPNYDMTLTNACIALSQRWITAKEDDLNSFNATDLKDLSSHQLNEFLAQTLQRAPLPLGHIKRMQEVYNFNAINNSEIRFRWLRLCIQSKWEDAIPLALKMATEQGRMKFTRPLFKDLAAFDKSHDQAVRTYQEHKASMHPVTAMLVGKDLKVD

Regarding `O=C1[C@@H](O)CCN1C1CCN(C[C@H]2Cc3ccc(Oc4ccc(-c5ccn[nH]5)cn4)cc3O2)CC1` [Example 62, (S)-3-Hydroxy-1-(1-{(R)-6-[5-(2H-pyrazol-3-yl)-pyridin-2-yloxy]-2,3-dihydro-benzofuran-2-ylmethyl}-piperidin-4-yl)-pyrrolidin-2-one], the pIC50 on human LTA4 hydrolase is 9.11; in experiment [1], 6.47.
Turning to `CO[C@H](C)C(=O)N1CCN(Cc2ccc3cc(Oc4ccc(-c5ccn[nH]5)cn4)ccc3n2)CC1` [Example 140, (R)-2-Methoxy-1-(4-{6-[5-(2H-pyrazol-3-yl)-pyridin-2-yloxy]-quinolin-2-ylmethyl}-piperazin-1-yl)-propan-1-one], the results for the pIC50 (on human LTA4 hydrolase; in experiment [1]) were 9.24 and 6.82, respectively.
With `CC(=O)NC1CCN(Cc2ccc3cc(Oc4ncc(-c5ccn[nH]5)cn4)ccc3c2)CC1` [Example 28, N-(1-{6-[5-(2H-Pyrazol-3-yl)-pyrimidin-2-yloxy]-naphthalen-2-ylmethyl}-piperidin-4-yl)-acetamide], the figures for the negative-log IC50 (pIC50) (against human LTA4 hydrolase; in experiment [1]) were 8.74 and 6.57, respectively.
Turning to `CCC(=O)N1CCN(Cc2ccc3cc(Oc4ncc(-c5ccn[nH]5)cn4)ccc3c2)CC1` [Example 37, 1-(4-{6-[5-(2H-Pyrazol-3-yl)-pyrimidin-2-yloxy]-naphthalen-2-ylmethyl}-piperazin-1-yl)-propan-1-one], the results for the pIC50 (against human LTA4 hydrolase; in experiment [1]) were 9.37 and 6.92, respectively.
As for `COC(C)(C)C(=O)N1CCN(Cc2ccc3cc(Oc4ccc(-c5ccn[nH]5)cn4)ccc3n2)CC1` [Example 128, 2-Methoxy-2-methyl-1-(4-{6-[5-(2H-pyrazol-3-yl)-pyridin-2-yloxy]-quinolin-2-ylmethyl}-piperazin-1-yl)-propan-1-one], the pIC50 on human LTA4 hydrolase was 9.25; in experiment [1], 6.62.
Take `O=C([C@H]1CCCO1)N1CC2CCC(C1)N2Cc1ccc2cc(Oc3ccc(-c4ccn[nH]4)cn3)ccc2n1` [Example 54, (8-{6-[5-(2H-Pyrazol-3-yl)-pyridin-2-yloxy]-quinolin-2-ylmethyl}-3,8-diaza-bicyclo[3.2.1]oct-3-yl)-(R)-tetrahydro-furan-2-yl-methanone]: the pIC50 at human LTA4 hydrolase is 8.89; in experiment [1] it was 6.72.
For the molecule `O=C1[C@@H](O)CCN1C1CCN(C[C@@H]2Cc3ccc(Oc4ccc(-c5ccn[nH]5)cn4)cc3O2)CC1` [Example 61, (S)-3-Hydroxy-1-(1-{(S)-6-[5-(2H-pyrazol-3-yl)-pyridin-2-yloxy]-2,3-dihydro-benzofuran-2-ylmethyl}-piperidin-4-yl)-pyrrolidin-2-one], the pIC50 on human LTA4 hydrolase is 8.92; in experiment [1], 6.66.
Regarding `CC(=O)NCC1CCN(Cc2coc3cc(Oc4ccc(-c5ccn[nH]5)cn4)ccc23)CC1` [Example 106, N-(1-{6-[5-(2H-Pyrazol-3-yl)-pyridin-2-yloxy]-benzofuran-3-ylmethyl}-piperidin-4-ylmethyl)-acetamide], the negative-log IC50 (pIC50) at human LTA4 hydrolase was 9.42; in experiment [1], 6.92.
Take `OC1CN(Cc2ccc3cc(Oc4ccc(-c5ccn[nH]5)cn4)ccc3n2)C1` [Example 42, 1-{6-[5-(2H-Pyrazol-3-yl)-pyridin-2-yloxy]-quinolin-2-ylmethyl}-azetidin-3-ol]: the pIC50 against human LTA4 hydrolase is 9.04; in experiment [1], 6.72.
In the case of `O=C(N1CCN(Cc2cn3cc(Oc4ccc(-c5ccn[nH]5)cc4)ccc3n2)CC1)C1(O)CC1` [Example 96, (1-Hydroxy-cyclopropyl)-(4-{6-[4-(2H-pyrazol-3-yl)-phenoxy]-imidazo[1,2-a]pyridin-2-ylmethyl}-piperazin-1-yl)-methanone], the negative-log IC50 (pIC50) was 8.92 against human LTA4 hydrolase and 6.00 in experiment [1].
The matching figures for `CC(C)(O)C(=O)N1CCN(CCc2coc3cc(Oc4ccc(-c5ccn[nH]5)cn4)ccc23)CC1` [Example 85, 2-Hydroxy-2-methyl-1-[4-(2-{6-[5-(2H-pyrazol-3-yl)-pyridin-2-yloxy]-benzofuran-3-yl}-ethyl)-piperazin-1-yl]-propan-1-one]: 8.89 and 6.51.
Consider `C[C@H](O)C(=O)N1CCN(CCC2COc3cc(Oc4ccc(-c5ccn[nH]5)cn4)ccc32)CC1` (stereo partly drawn) [Example 84, (S)-2-Hydroxy-1-[4-(2-{6-[5-(2H-pyrazol-3-yl)-pyridin-2-yloxy]-2,3-dihydro-benzofuran-3-yl}-ethyl)-piperazin-1-yl]-propan-1-one], for which the results for the pIC50 (against human LTA4 hydrolase; in experiment [1]) were 8.89 and 6.35, respectively.
`CC(=O)N[C@H]1CCN(Cc2ccc3cc(Oc4ccc(-c5ccn[nH]5)cn4)ccc3c2)C1` [Example 13, N-((S)-1-{6-[5-(2H-Pyrazol-3-yl)-pyridin-2-yloxy]-naphthalen-2-ylmethyl}-pyrrolidin-3-yl)-acetamide]: the results for the pIC50 (at human LTA4 hydrolase; in experiment [1]) were 9.10 and 6.54, respectively.
In the case of `O=C(CN1CCN(Cc2coc3cc(Oc4ccc(-c5ccn[nH]5)cn4)ccc23)CC1)N1CCCC1` [Example 111, 2-(4-{6-[5-(2H-Pyrazol-3-yl)-pyridin-2-yloxy]-benzofuran-3-ylmethyl}-piperazin-1-yl)-1-pyrrolidin-1-yl-ethanone], the values for the pIC50 (at human LTA4 hydrolase; in experiment [1]) were 9.17 and 6.77, respectively.
On to `CN(C)C(=O)N1CCN(Cc2ccc3cc(Oc4ncc(-c5ccn[nH]5)cn4)ccc3c2)CC1` [Example 34, 4-{6-[5-(2H-Pyrazol-3-yl)-pyrimidin-2-yloxy]-naphthalen-2-ylmethyl}-piperazine-1-carboxylic acid dimethylamide], for which the pIC50 on human LTA4 hydrolase is 9.09; in experiment [1], 6.37.
For `O=C(C1CC(O)C1)N1CCN(Cc2ccc3cc(Oc4ccc(-c5ccn[nH]5)cn4)ccc3n2)CC1` (stereo not shown) [Example 139, (3-Hydroxy-cyclobutyl)-(4-{6-[5-(2H-pyrazol-3-yl)-pyridin-2-yloxy]-quinolin-2-ylmethyl}-piperazin-1-yl)-methanone], the pIC50 against human LTA4 hydrolase is 8.52; in experiment [1] it was 6.30.
Consider `CO[C@H](C)C(=O)N1CCN(CCC2COc3cc(Oc4ccc(-c5ccn[nH]5)cn4)ccc32)CC1` (stereo partly drawn) [Example 76, (R)-2-Methoxy-1-[4-(2-{6-[5-(2H-pyrazol-3-yl)-pyridin-2-yloxy]-2,3-dihydro-benzofuran-3-yl}-ethyl)-piperazin-1-yl]-propan-1-one], for which the pIC50 is 8.77 against human LTA4 hydrolase and 6.44 in experiment [1].
Taken in the same sequence, the figures for `O=C([C@@H]1CCCO1)N1CCN(Cc2ccc3cc(Oc4ccc(-c5ccn[nH]5)cn4)ccc3n2)CC1` [Example 132, (4-{6-[5-(2H-Pyrazol-3-yl)-pyridin-2-yloxy]-quinolin-2-ylmethyl}-piperazin-1-yl)-(S)-tetrahydro-furan-2-yl-methanone] were 8.54 and 6.20.
As for `O=C(N1CC2CCC(C1)N2Cc1ccc2cc(Oc3ccc(-c4ccn[nH]4)cn3)ccc2n1)C1(O)CC1` [Example 56, (1-Hydroxy-cyclopropyl)-(8-{6-[5-(2H-pyrazol-3-yl)-pyridin-2-yloxy]-quinolin-2-ylmethyl}-3,8-diaza-bicyclo[3.2.1]oct-3-yl)-methanone], the results for the pIC50 (at human LTA4 hydrolase; in experiment [1]) were 9.28 and 6.82, respectively.
Consider `CC(C)(C)C(=O)N1CCN(Cc2ccc3cc(Oc4ncc(-c5ccn[nH]5)cn4)ccc3c2)CC1` [Example 35, 2,2-Dimethyl-1-(4-{6-[5-(2H-pyrazol-3-yl)-pyrimidin-2-yloxy]-naphthalen-2-ylmethyl}-piperazin-1-yl)-propan-1-one], for which the pIC50 against human LTA4 hydrolase was 8.57; in experiment [1], 6.02.
In the case of `CNC(=O)C1CCN(Cc2coc3cc(Oc4ccc(-c5ccn[nH]5)cn4)ccc23)CC1` [Example 103, 1-{6-[5-(2H-Pyrazol-3-yl)-pyridin-2-yloxy]-benzofuran-3-ylmethyl}-piperidine-4-carboxylic acid methylamide], the pIC50 at human LTA4 hydrolase is 9.31; in experiment [1], 6.77.
Taken in the same sequence, the figures for `O=C([C@@H]1CCCO1)N1CC2CCC(C1)N2Cc1ccc2cc(Oc3ccc(-c4ccn[nH]4)cn3)ccc2n1` [Example 55, (8-{6-[5-(2H-Pyrazol-3-yl)-pyridin-2-yloxy]-quinolin-2-ylmethyl}-3,8-diaza-bicyclo[3.2.1]oct-3-yl)-(S)-tetrahydro-furan-2-yl-methanone] were 8.77 and 6.55.
For `O=C([C@@H]1CCC[C@@H]1O)N1CCN(Cc2ccc3cc(Oc4ccc(-c5ccn[nH]5)cn4)ccc3n2)CC1` [Example 151, ((1R,2S)-2-Hydroxy-cyclopentyl)-(4-{6-[5-(2H-pyrazol-3-yl)-pyridin-2-yloxy]-quinolin-2-ylmethyl}-piperazin-1-yl)-methanone], the negative-log IC50 (pIC50) against human LTA4 hydrolase was 8.21; in experiment [1], 6.10.
Consider `CS(=O)(=O)N1CCN(CCC2COc3cc(Oc4ccc(-c5ccn[nH]5)cn4)ccc32)CC1` (stereo not shown) [Example 71, 1-Methanesulfonyl-4-(2-{6-[5-(2H-pyrazol-3-yl)-pyridin-2-yloxy]-2,3-dihydro-benzofuran-3-yl}-ethyl)-piperazine], for which the pIC50 was 8.77 against human LTA4 hydrolase and 6.31 in experiment [1].
Regarding `CC(C)(C#N)C(=O)N1CC2CCC(C1)N2Cc1ccc2cc(Oc3ccc(-c4ccn[nH]4)cn3)ccc2n1` [Example 51, 2,2-Dimethyl-3-oxo-3-(8-{6-[5-(2H-pyrazol-3-yl)-pyridin-2-yloxy]-quinolin-2-ylmethyl}-3,8-diaza-bicyclo[3.2.1]oct-3-yl)-propionitrile], the negative-log IC50 (pIC50) against human LTA4 hydrolase is 9.14; in experiment [1], 6.68.
`O=C1OCCN1C1CCN(CCC2COc3cc(Oc4ccc(-c5ccn[nH]5)cn4)ccc32)CC1` (stereo not shown) [Example 69, 3-[1-(2-{6-[5-(2H-Pyrazol-3-yl)-pyridin-2-yloxy]-2,3-dihydro-benzofuran-3-yl}-ethyl)-piperidin-4-yl]-oxazolidin-2-one]: the negative logarithm of the IC50 (pIC50) against human LTA4 hydrolase is 9.12; in experiment [1], 6.68.
